This note sets out measurements from PMC8899516, “Structure-Activity Relationship Studies of 4-((4-(2-fluorophenyl)piperazin-1-yl)methyl)-6-imino-N-(naphthalen-2-yl)-1,3,5-triazin-2-amine (FPMINT) Analogues as Inhibitors of Human Equilibrative Nucleoside Transporters” (Frontiers in Pharmacology, 2022).

One data set concerns the target T1, ENT1 (Homo sapiens, UniProt Q99808).
T1 construct: expressed in transfected cells
T1 sequence (Q99808 1-456): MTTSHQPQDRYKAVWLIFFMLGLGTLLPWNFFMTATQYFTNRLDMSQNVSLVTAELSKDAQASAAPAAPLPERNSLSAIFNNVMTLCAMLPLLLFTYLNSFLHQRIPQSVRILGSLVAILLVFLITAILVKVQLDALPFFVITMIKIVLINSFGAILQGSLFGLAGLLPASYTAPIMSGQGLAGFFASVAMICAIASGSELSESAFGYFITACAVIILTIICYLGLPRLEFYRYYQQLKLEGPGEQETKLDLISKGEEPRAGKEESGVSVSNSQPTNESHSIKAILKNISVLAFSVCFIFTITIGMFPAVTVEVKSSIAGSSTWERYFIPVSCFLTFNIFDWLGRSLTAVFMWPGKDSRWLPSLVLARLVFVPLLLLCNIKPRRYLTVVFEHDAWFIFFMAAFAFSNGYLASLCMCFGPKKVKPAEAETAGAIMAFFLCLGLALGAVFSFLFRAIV
Kind of data set: Kinetic study of [3H]uridine uptake in PK15NTD/ENT1 cells. In kind it is cell-based. How it is done:
Nucleoside transporter-deficient porcine kidney fibroblast cells (PK15NTD) stably transfected with cloned human ENT1 or ENT2 ([Ward et al., 2000]) were used as the in vitro models. The cells were cultured in Dulbecco’s Modified Eagle’s Medium (DMEM) supplemented with 10% (v/v) foetal bovine serum, 0.5 mg/ml geneticin, 100 units/ml penicillin, 100 μg/ml streptomycin and 0.25 μg/ml of amphotericin B at 37°C in 5% CO2/95% air.
Confluent monolayers of PK15NTD/ENT1 and PK15NTD/ENT2 cells in 24-well plates were washed thrice with HEPES-buffered Ringer’s solution containing (mM): 135 NaCl, 10 glucose, 5 KCl, 5 HEPES, 3.33 NaH2PO4, 1.0 CaCl2, 1.0 MgCl2, 0.83 Na2HPO4; pH 7.4. The cells were incubated with different concentrations of FPMINT analogues (from 10 nM to 100 μM) containing [^3H]uridine (2 μCi/ml, 1 μM) for 1 min. Passive uridine uptake was determined by incubating the cells in HEPES-buffered Ringer’s solution containing [^3H]uridine in the presence of 0.5 mM NBMPR. The cells were rapidly washed five times with ice-cold phosphate-buffered saline (PBS). After air-drying, the cells were solubilised by overnight incubation in 500 μl of 5% Triton-X100. Next, 300 μl of the cell lysates were mixed with 2 ml of scintillation liquid. The radioactivity of each sample was quantified by a scintillation counter. The protein content in each well was determined spectrophotometrically using a commercial bicinchoninic acid assay (Pierce Biochemicals, Rockford, IL). Uptake values were expressed as picomoles of [^3H]uridine per milligram of cellular protein per minute.
All data were analysed by GraphPad Prism software (San Diego, CA, United States). Data are expressed as mean ± standard error (SE) of three experiments performed in triplicate. The IC50 values were determined from the dose-response curves fitted with a logistic function. For the kinetic study of [^3H]uridine uptake, apparent K m and V max values were determined from the Michaelis-Menten equation, and K i was determined from the X-intercept of linear regression. Analysis of variance and Student’s t-test were performed for multiple and paired variables, respectively. p values of <0.05 were considered to be statistically significant.
Compound 3c was selected for further investigation. The kinetic study of [^3H]uridine transport was performed by measuring the concentration-dependent uptake of [^3H]uridine. This study could provide clue about the mode of action of compound 3c. The uptake of [^3H]uridine by ENT1 and ENT2 was saturable and conformed to Michaelis-Menten kinetics. Compound 3c decreased the V max of ENT1 but had no effect on K m . […] The slopes of the linear 1/V versus 1/[S] plots increased with the concentration of compound 3c (Figure 4B).
FIGURE 4 Competitive inhibition of ENT1 and ENT2 by compound 3c. Kinetic study of [^3H]uridine uptake (0.1 μM–1 mM) was measured in (A) PK15NTD/ENT1 and (D) PK15NTD/ENT2 cells in the presence of various concentrations of compound 3c (0, 0.01, 0.1, 1 and 10 µM) (B,E) 1/V versus 1/[S] plots of each curve in (A) and (D), respectively (C,F) The plot of slopes of each line in (B) and (E), respectively, versus the concentration of compound 3c. Data are presented as mean ± SE of three experiments.

The test system of a further data set is PK15NTD/ENT1 cells. Kind of data set: Cell membrane integrity, LDH release. The note with it: 50 µM, 24 or 48 h. In kind it is cell-based, porcine. The method, then: (§1) PK15NTD/ENT1 and PK15NTD/ENT2 cells were seeded onto 96-well plates until they reached 80–90% confluent. The cells were then treated with different concentrations of compound 3c or an equivalent volume of a vehicle (0.5% dimethyl sulfoxide (DMSO), as a control) in a serum-free medium for another 24 or 48 h. For measuring cell membrane integrity, the lactate dehydrogenase (LDH) released into the culture medium was measured with a detection kit (Abcam, Cambridge, UK) according to the manufacturer’s instructions. The absorbance at 490 nm was measured with a microplate absorbance reader. For measuring cell viability, 0.5 mg/ml methylthiazolyldiphenyl-tetrazolium bromide (MTT) was added to each well. […] The absorbance was measured at 560 nm, with the absorbance at 655 nm serving as the background.
(§2) FIGURE 5 Effects of compound 3c on cytotoxicity and protein expressions of ENT1 and ENT2. Cytotoxicity of compound 3c was measured after 24 h or 48 h treatment of PK15NTD/ENT1 and PK15NTD/ENT2 cells with various concentrations of compound 3c (0.5, 5 and 50 μM) or a vehicle (0.5% DMSO, as a control) (A) The cell viability and (B) cell membrane integrity were determined by the MTT assay and LDH release, respectively (C) PK15NTD/ENT1 and (D) PK15NTD/ENT2 cells were incubated with 50 μM of compound 3c or a vehicle (0.5% DMSO, as a control) for 24 or 48 h. […]
A general note: Release of lactate dehydrogenase indicates damage to the cell membrane.

In the next data set the test system is PK15NTD/ENT2 cells. In words: Cell membrane integrity, LDH release. In kind it is cell-based, porcine. To be noted: 50 µM, 24 or 48 h. The method, then: as §1, §2

Broadly, the Ki is the dissociation constant of the complex between target and ligand, obtained from inhibition or displacement. Read a high Ki as lower affinity. For `Cc1cccc(Nc2nc(N)nc(CN3CCN(c4ccc(F)cc4)CC3)n2)c1` [Compound 3c], the “apparent Vmax of ENT1” value was found to be 2083 ± 36.80 pmol/mg protein/min on ENT1 (0.01 µM compound 3c), 1867 ± 27.63 pmol/mg protein/min on ENT1 (0.1 µM compound 3c), 1377 ± 37.81 pmol/mg protein/min on ENT1 (1 µM compound 3c) and 732.9 ± 12.02 pmol/mg protein/min on ENT1 (10 µM compound 3c). The “mode of inhibition of ENT1-mediated uridine transport” value at ENT1 (decreased Vmax, apparent Km unchanged) is recorded as “non-competitive inhibitor”. This compound returned a Ki at ENT1 (x-intercept of slopes versus concentration plot) of 2790 nM. In addition, the cell membrane integrity result in the data set on PK15NTD/ENT1 cells and with PK15NTD/ENT2 cells was “No significant changes” in each case.
